In patent publication US5141959A, “Isoprenoid phospholipase A2 inhibitors and preparations comprising same” (Bristol-Myers Squibb Company, priority 1990, dated 1992):

Legend:
[1] = molecular target: T1, human platelet PLA2 (Homo sapiens, UniProt P14555); assay: PLA2 Inhibition Assay (14C-oleate labeled E. coli membrane substrate); format: biochemical; details: preincubation 7 min, incubation 30 min, 37° C., pH 7; unit inferred; read-out: IC50 for inhibition of human platelet phospholipase A2
T1 construct: The enzyme was isolated from human platelets; from tissue; host or cells: human platelets
T1 sequence (P14555 21-144): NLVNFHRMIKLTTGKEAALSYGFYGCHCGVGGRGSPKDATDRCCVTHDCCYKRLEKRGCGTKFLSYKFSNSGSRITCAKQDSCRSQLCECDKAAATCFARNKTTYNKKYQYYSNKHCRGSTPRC
Method: This assay is used to measure the inhibition of human platelet PLA2 by test compounds. The method used was similar to that reported by Franson et al. [Jesse RL and Franson RC, Biochem Biophys Acta, 575, 467-470 (1979)]. [Franson RC, Patriarca P and Elsback P, J Lipid Res 15, 380-388 (1974)]. The enzyme was isolated from human platelets. The substrate used consisted of ^14 C-oleate labeled E. coli membranes. E. Coli cells were grown in the presence of ^14 C-oleic acid and then autoclaved to prepare membranes. In the assay, various concentrations of test compounds are preincubated with PLA2 (7.5 μg/ml) in a buffer consisting of 25 mM HEPES (pH 7) 150 mM NaCl, 5.0 mM Cacl2, and 10% DMSO (test compound solvent) at 37° C. for 7 minutes. The E. coli membrane substrate is then added (0.1 mM phospholipid, 0.5 μCi/umol) and the reaction is incubated at 37° C. for 30 minutes. The final reaction volume is 0.1 ml. The reaction is quenched with tetrahydrofuran (1.9 ml), and the entire solution is applied to a solid-phase extraction column (aminopropylresin, Analytichem). […] The amount of free fatty acid product is determined by liquid scintillation counting. The amount of inhibition produced by the test compound is calculated by comparing the number of counts obtained in the presence of the compound to that obtained for the control reactions (test compound solvent only). […]

[2] = test system: myeloperoxidase (MPO) activity; assay: Phorbol ester (TPA)-induced mouse ear inflammation assay: cell infiltration (neutrophil accumulation by myeloperoxidase activity); format: in vivo, CD-1 mice; details: topical, six hours
Method: (§1) Anti-inflammatory activity of the test compounds was determined in the phorbol ester-induced mouse ear inflammation model. [Young J M, Wagner B M and Spires D A, J Invest Dermatol, 80, 48-52 (1983)]. In this assay, an inflammatory reaction is induced by the topical application of 0.01% (w/v) tetradecanoylphorbol-13-acetate (TPA) to the ears of CD-1 mice. An acute inflammatory reaction results in which the ears swell and inflammatory cells infiltrate the ear tissue. TPA, with and without various concentrations of test compound, was applied to the inner and outer aspects of the ears (10 μl/surface). After six hours, the mice were sacrificed and the ears were removed. Ear tissue punches (5/16") were taken from each ear and weighed to measure edema. The ear punches were then processed for the determination of neutrophil accumulation by measurement of myeloperoxidase (MPO) activity by the method of Bradley et al. [Bradley P P et al, J Invest Dermatol, 78, 206-209 (1982)]. MPO is a specific marker for the presence of neutrophils in tissue.
(§2) The anti-inflammatory activity produced by the test compound is calculated by comparing the edema or MPO values obtained for the drug-treated ears to those obtained for non-drug treated ears. Percent inhibition values were determined by the equation: [formula] […] The ED50 is estimated to be 0.8%.

[3] = test system: TPA-induced mouse ear edema; assay: Phorbol ester (TPA)-induced mouse ear inflammation assay: edema (ear weight); format: in vivo, CD-1 mice; details: topical, six hours
Method: as §1, §2

Row | SMILES | IC50 [1] | Blocking of edema and cell infiltration (in words) ([2]; statement covers edema and cell infiltration) | ED50, inhibition of cell infiltration ([2]; with TPA 0.01% (w/v), MPO activity) | Blocking of TPA-induced mouse ear edema (in words) [3] | ED50, TPA-induced mouse ear edema ([3]; with TPA 0.01% (w/v))
1 | CC1=C(/C=C/C(C)=C/C=C/C(C)=C/C(=O)O)C(C)(C)CCC1 [reference compound] | > 500 µM | – | – | – | –
2 | CC1=C(/C=C/C(C)=C/C=C(/C(C)=C\C(=O)O)c2cccc(C(=O)O)c2)C(C)(C)CCC1 [Compound I, 13-CIS-12-(3'-CARBOXYPHENYL)RETINOIC ACID] | 40 µM | effectively blocks edema and cell infiltration | < 0.1% | dose-dependently blocks TPA-induced mouse ear edema | ~0.8%
